From US8242275B2, “Bicyclic pyrazole compounds as antibacterial agents” (Janssen Pharmaceutica NV, priority 2005, dated 2012)
Values after ≈ are worked out from the molar mass of the structure shown.

What was measured:
[1] = system: CipR MRSA OC3946; experiment: Resistant strains assay (broth microdilution MIC); format: cell-based; conditions: Staphylococcus aureus; CipR MRSA OC3946; read-out: MIC, Column E
Description: (§1) Compounds of the present invention were tested for activity against susceptible and resistant bacterial strains in vitro, and activity was compared to known anti-bacterial agents. Testing protocols followed NCCLS methodology for broth microdilution assays. MIC values in μg/mL are presented in Table 3 for the following strains: Column A: MSSA ATCC13709 (Smith); Column B: MSSA ATCC 29213; Column C: MRSA OC3726 (COL); Column D: MRSA OC2878.
MIC values in μg/mL are presented in Table 4 for the following strains: Column E: CipR MRSA OC3946; Column F: CipR MRSA OC4159; Column G: CipR MRSA OC4222; Column H: CipR MRSA OC5273.

[2] = system: MSSA ATCC13709 (Smith); experiment: Resistant strains assay (broth microdilution MIC); format: cell-based; conditions: Staphylococcus aureus
Description: as §1

[3] = system: MSSA ATCC 29213; experiment: Resistant strains assay (broth microdilution MIC); format: cell-based; conditions: Staphylococcus aureus, read-out: MIC, Column B
Description: as §1

[4] = target: T1, E. coli topoisomerase IV (Escherichia coli, UniProt P0AFI2+P20083); experiment: Topoisomerase IV inhibition assay (relaxation); format: biochemical; conditions: E. coli topoisomerase IV relaxation, visual inspection of gels; read-out: Topoisomerase IV IC50 (converted)
T1 construct: purchased John Innes Enterprises Ltd. (John Innes Centre, UK)
T1 sequence (P0AFI2 whole entry): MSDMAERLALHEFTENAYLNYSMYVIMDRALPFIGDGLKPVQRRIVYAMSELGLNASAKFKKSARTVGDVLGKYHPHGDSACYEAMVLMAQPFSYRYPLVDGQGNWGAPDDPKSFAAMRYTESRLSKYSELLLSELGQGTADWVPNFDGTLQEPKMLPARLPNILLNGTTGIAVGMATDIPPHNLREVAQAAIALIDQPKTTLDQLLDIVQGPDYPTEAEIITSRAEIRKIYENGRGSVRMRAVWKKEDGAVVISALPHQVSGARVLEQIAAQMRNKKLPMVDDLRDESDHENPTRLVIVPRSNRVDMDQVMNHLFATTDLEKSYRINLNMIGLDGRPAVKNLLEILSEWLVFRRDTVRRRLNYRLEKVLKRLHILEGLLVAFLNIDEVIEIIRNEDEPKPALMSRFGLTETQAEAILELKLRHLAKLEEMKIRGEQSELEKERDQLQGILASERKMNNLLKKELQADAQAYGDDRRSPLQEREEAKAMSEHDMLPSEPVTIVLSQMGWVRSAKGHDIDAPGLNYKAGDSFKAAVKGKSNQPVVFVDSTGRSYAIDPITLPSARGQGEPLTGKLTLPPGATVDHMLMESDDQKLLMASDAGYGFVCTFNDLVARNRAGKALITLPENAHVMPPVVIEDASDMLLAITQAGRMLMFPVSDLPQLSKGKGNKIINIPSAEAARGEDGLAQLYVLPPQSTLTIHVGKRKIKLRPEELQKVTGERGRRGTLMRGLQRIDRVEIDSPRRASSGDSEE
T1 sequence (P20083 whole entry): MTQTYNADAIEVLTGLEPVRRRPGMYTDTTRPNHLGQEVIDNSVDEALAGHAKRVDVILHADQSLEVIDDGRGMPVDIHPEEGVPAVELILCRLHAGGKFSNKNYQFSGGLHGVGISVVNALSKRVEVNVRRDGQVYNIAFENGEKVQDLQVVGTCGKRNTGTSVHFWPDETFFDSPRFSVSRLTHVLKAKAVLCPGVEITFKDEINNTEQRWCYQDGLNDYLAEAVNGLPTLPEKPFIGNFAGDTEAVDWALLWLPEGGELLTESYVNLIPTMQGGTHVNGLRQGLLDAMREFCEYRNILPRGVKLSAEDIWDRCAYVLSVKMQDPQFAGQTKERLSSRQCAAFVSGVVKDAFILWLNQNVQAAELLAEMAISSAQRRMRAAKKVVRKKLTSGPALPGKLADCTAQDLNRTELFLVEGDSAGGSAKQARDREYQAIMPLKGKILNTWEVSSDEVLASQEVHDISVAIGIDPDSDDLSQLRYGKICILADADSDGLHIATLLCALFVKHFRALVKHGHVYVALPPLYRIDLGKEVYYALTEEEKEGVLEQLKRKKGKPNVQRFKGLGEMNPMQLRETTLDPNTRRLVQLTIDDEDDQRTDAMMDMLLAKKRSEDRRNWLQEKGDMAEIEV
Description: Inhibition of the relaxation activity of E. coli topoisomerase IV was determined using enzyme, buffers and substrates received from John Innes Enterprises Ltd. (John Innes Centre, UK). The reactions were performed according to the manufacturer's directions, with the following modifications.
DNA relaxation reactions were carried out in a total reaction volume of 20 μL, containing 300 ng of supercoiled pBR322, 40 mM HEPES-KOH (pH 7.6), 100 mM potassium glutamate, 10 mM Mg(OAc)2, 10 mM DTT, 4 μg/mL tRNA, 2 mM ATP, and 50 μg/mL BSA. Compounds, diluted in 10% DMSO, were added to the reaction mixture to reach a final concentration of 0.5% DMSO. Enzyme was diluted to 0.45 unit/μL in a solution of 40 mM HEPES-KOH (pH 7.6), 150 mM potassium glutamate, 1 mM DTT, 1 mM EDTA, and 40% glycerol. Diluted enzyme (0.9 unit) was added to each reaction.
The reactions were incubated at 37° C. for 45 min. The reactions were then cooled to 0° C. followed by addition of 3 μL of 40% glycerol, 100 mM Tris-HCl (pH 7.5), 50 mM EDTA, 0.5% SDS and 0.1% bromophenol blue. Samples were separated on 1.0% agarose gels. Gels were stained with Ethidium bromide and photographed with a Stratagene Eagle Eye II.

[5] = system: S. aureus ATCC13709; experiment: In vitro antibacterial activity (MIC assay), broth microdilution; format: cell-based; conditions: Staphylococcus aureus, ATCC13709; read-out: S. aureus ATCC13709 MIC
In short: (§2)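 Bacteria at roughly 5×10^5 CFU/mL final were grown 16–24 h at 35° C in wells holding 2-fold serial dilutions (11 points) of compound prepared in 100% DMSO, following NCCLS M7-A5. MIC, in μg/mL, is the concentration that stops visible growth relative to untreated wells.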

[6] = system: S. pneumoniae ATCC49619; experiment: as above; format: cell-based; conditions: Streptococcus pneumoniae, ATCC49619; read-out: S. pneumoniae ATCC49619 MIC
In short: as §2

[7] = system: E. coli KL-16 (GSC strain 4245); experiment: as above; format: cell-based; conditions: Escherichia coli
In short: as §2

[8] = system: CipR MRSA OC5273; experiment: Resistant strains assay (broth microdilution MIC); format: cell-based; conditions: Staphylococcus aureus, read-out: MIC, Column H
From the text: (§3) Testing protocols followed NCCLS methodology for broth microdilution assays.

[9] = system: CipR MRSA OC4159; experiment: Resistant strains assay (broth microdilution MIC); format: cell-based; conditions: Staphylococcus aureus, read-out: MIC, Column F
From the text: as §3

[10] = system: MRSA OC3726 (COL); experiment: Resistant strains assay (broth microdilution MIC); format: cell-based; conditions: Staphylococcus aureus; MRSA OC3726 (COL); read-out: MIC, Column C
From the text: as §3

[11] = system: MRSA OC2878; experiment: Resistant strains assay (broth microdilution MIC); format: cell-based; conditions: Staphylococcus aureus; MRSA OC2878; read-out: MIC, Column D
From the text: as §3

[12] = system: CipR MRSA OC4222; experiment: Resistant strains assay (broth microdilution MIC); format: cell-based; conditions: Staphylococcus aureus; CipR MRSA OC4222; read-out: MIC, Column G
From the text: as §3

[13] = target: T2, E. coli DNA gyrase (Escherichia coli, UniProt P0AES4+P0AES6); experiment: DNA gyrase inhibition assay (supercoiling); format: biochemical; conditions: E. coli DNA gyrase supercoiling, visual inspection of gels; read-out: DNA Gyrase IC50 (converted)
T2 construct: purchased John Innes Enterprises Ltd. (John Innes Centre, UK)
In short: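 Agarose-gel (1.0%, ethidium-stained) readout of supercoiled versus relaxed pBR322 after 30 min at 37° C. Each reaction held 250 ng DNA, 0.2 unit enzyme, 1 mM ATP, 4 mM MgCl2, 24 mM KCl in 35 mM Tris-HCl pH 7.5, and compound at 0.5% DMSO final.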

MIC [1]	MIC [2]	MIC [3]	MIC [8]	MIC [9]	MIC [10]	MIC [11]	SMILES	IC50 [4]	MIC [5]	MIC [6]	MIC [7]	MIC [12]	IC50 [13]
0.5 µg/mL (≈ 1.22 µM)	0.5 µg/mL (≈ 1.22 µM)	2 µg/mL (≈ 4.87 µM)	1 µg/mL (≈ 2.44 µM)	0.5 µg/mL (≈ 1.22 µM)	1 µg/mL (≈ 2.44 µM)	0.5 µg/mL (≈ 1.22 µM)	COc1ccc2nccc(-n3cc4c(n3)CCC(NC/C=C/c3ccccc3)C4)c2c1 (centres unmarked) [Example 55, [2-(6-Methoxy-quinolin-4-yl)-4,5,6,7-tetrahydro-2H-indazol-5-yl]-(3-phenyl-allyl)-amine]	–	0.5 µg/mL (≈ 1.22 µM)	1 µg/mL (≈ 2.44 µM)	64 µg/mL (≈ 156 µM)	0.25 µg/mL (≈ 0.609 µM)	–
16 µg/mL (≈ 48.3 µM)	0.25 to 0.5 µg/mL (≈ 0.754 to 1.51 µM)	0.25 to 0.5 µg/mL (≈ 0.754 to 1.51 µM)	–	–	–	–	O=C(O)c1cn(C2CC2)c2cc(N3CCNCC3)c(F)cc2c1=O [Ciprofloxacin, reference compound]	–	–	–	–	–	–
–	–	–	–	–	–	–	COc1ccc2nccc(-n3cc4c(n3)CCC(NC(=O)c3c(F)cc5c(c3F)NC(=O)CS5)C4)c2n1 (centres unmarked) [Example 109, 5,7-Difluoro-3-oxo-3,4-dihydro-2H-benzo[1,4]thiazine-6-carboxylic acid [2-(6-methoxy-[1,5]naphthyridin-4-yl)-4,5,6,7-tetrahydro-2H-indazol-5-yl]-amide]	–	0.125 µg/mL (≈ 0.239 µM)	4 µg/mL (≈ 7.65 µM)	> 128 µg/mL	0.03 µg/mL (≈ 0.0574 µM)	1910 nM
128 µg/mL (≈ 401 µM)	1 µg/mL (≈ 3.13 µM)	2 µg/mL (≈ 6.26 µM)	> 128 µg/mL	> 128 µg/mL	2 µg/mL (≈ 6.26 µM)	1 µg/mL (≈ 3.13 µM)	CCn1cc(C(=O)O)c(=O)c2cc(F)c(N3CCNCC3)cc21 [Norfloxacin, reference compound]	–	–	–	–	> 128 µg/mL	–
4 µg/mL (≈ 10.2 µM)	0.062 µg/mL (≈ 0.158 µM)	0.062 µg/mL (≈ 0.158 µM)	16 µg/mL (≈ 40.8 µM)	16 µg/mL (≈ 40.8 µM)	0.125 µg/mL (≈ 0.319 µM)	0.062 µg/mL (≈ 0.158 µM)	C[C@@H]1CN(c2c(F)c(N)c3c(=O)c(C(=O)O)cn(C4CC4)c3c2F)C[C@H](C)N1 [Sparfloxacin, reference compound]	–	–	–	–	8 µg/mL (≈ 20.4 µM)	–
–	–	–	–	–	–	–	COc1ccc2nccc(-n3cc4c(n3)CCC(NC(=O)c3c(F)cc5c(c3F)NC(=O)CS5)C4)c2c1 (centres unmarked) [Example 108, 5,7-Difluoro-3-oxo-3,4-dihydro-2H-benzo[1,4]thiazine-6-carboxylic acid [2-(6-methoxy-quinolin-4-yl)-4,5,6,7-tetrahydro-2H-indazol-5-yl]-amide]	–	0.125 µg/mL (≈ 0.24 µM)	1 µg/mL (≈ 1.92 µM)	8 µg/mL (≈ 15.3 µM)	0.06 µg/mL (≈ 0.115 µM)	1920 nM
–	–	–	–	–	–	–	COc1ccc2nccc(-n3cc4c(n3)CCC(NC(=O)c3cnc5ccccc5n3)C4)c2n1 (centres unmarked) [Example 70, Quinoxaline-2-carboxylic acid [2-(6-methoxy-[1,5]naphthyridin-4-yl)-4,5,6,7-tetrahydro-2H-indazol-5-yl]-amide]	> 2210 nM	2 µg/mL (≈ 4.43 µM)	32 µg/mL (≈ 70.9 µM)	> 128 µg/mL	–	> 70900 nM
–	–	–	–	–	–	–	COc1ccc2nccc(-n3cc4c(n3)CCC(NCc3ccc5c(c3)NCCS5)C4)c2n1 (centres unmarked) [Example 36, (3,4-Dihydro-2H-benzo[1,4]thiazin-6-ylmethyl)-[2-(6-methoxy-[1,5]naphthyridin-4-yl)-4,5,6,7-tetrahydro-2H-indazol-5-yl]-amine]	65.4 nM	< 0.125 µg/mL	0.25 µg/mL (≈ 0.545 µM)	8 µg/mL (≈ 17.4 µM)	–	1090 nM
–	–	–	–	–	–	–	COc1ccc2nccc(-n3cc4c(n3)CCC(NC(=O)C3(c5ccc(Cl)cc5)CCCC3)C4)c2c1 (centres unmarked) [Example 80, 1-(4-Chloro-phenyl)-cyclopentanecarboxylic acid [2-(6-methoxy-quinolin-4-yl)-4,5,6,7-tetrahydro-2H-indazol-5-yl]-amide]	> 2000 nM	8 µg/mL (≈ 16 µM)	128 µg/mL (≈ 255 µM)	> 128 µg/mL	–	> 31900 nM
–	–	–	–	–	–	–	COc1ccc2nccc(-n3cc4c(n3)CCC(NC(=O)c3ccc5c(c3)NC(=O)CO5)C4)c2n1 (centres unmarked) [Example 117, 3-Oxo-3,4-dihydro-2H-benzo[1,4]oxazine-6-carboxylic acid [2-(6-methoxy-[1,5]naphthyridin-4-yl)-4,5,6,7-tetrahydro-2H-indazol-5-yl]-amide]	531 nM	0.125 µg/mL (≈ 0.266 µM)	8 µg/mL (≈ 17 µM)	4 µg/mL (≈ 8.5 µM)	–	2130 nM
–	–	–	–	–	–	–	COc1ccc2nccc(-n3cc4c(n3)CCC(NC(=O)c3ccc5c(c3)OCCO5)C4)c2n1 (centres unmarked) [Example 1, 2,3-Dihydro-benzo[1,4]dioxine-6-carboxylic acid [2-(6-methoxy-[1,5]naphthyridin-4-yl)-4,5,6,7-tetrahydro-2H-indazol-5-yl]-amide]	> 2190 nM	0.5 µg/mL (≈ 1.09 µM)	8 µg/mL (≈ 17.5 µM)	> 128 µg/mL	–	> 69900 nM
–	–	–	–	–	–	–	COc1ccc2nccc(-n3cc4c(n3)CCC(NCc3ccc5c(c3)OC(F)(F)O5)C4)c2n1 (centres unmarked) [Example 38, (2,2-Difluoro-benzo[1,3]dioxol-5-ylmethyl)-[2-(6-methoxy-[1,5]naphthyridin-4-yl)-4,5,6,7-tetrahydro-2H-indazol-5-yl]-amine]	537 nM	0.25 µg/mL (≈ 0.537 µM)	4 µg/mL (≈ 8.59 µM)	> 128 µg/mL	–	4300 nM
–	–	–	–	–	–	–	COc1ccc2nccc(-n3cc4c(n3)CCC(NC(=O)c3cc5c(cc3C)SCC(=O)N5)C4)c2c1 (centres unmarked) [Example 131, 7-Methyl-3-oxo-3,4-dihydro-2H-benzo[1,4]thiazine-6-carboxylic acid [2-(6-methoxy-quinolin-4-yl)-4,5,6,7-tetrahydro-2H-indazol-5-yl]-amide]	–	0.5 µg/mL (≈ 1 µM)	16 µg/mL (≈ 32 µM)	8 µg/mL (≈ 16 µM)	0.5 µg/mL (≈ 1 µM)	–
–	–	–	–	–	–	–	COc1ccc2nccc(-n3cc4c(n3)CCC(NC/C=C/c3ccccc3[N+](=O)[O-])C4)c2n1 (centres unmarked) [Example 89, [2-(6-Methoxy-[1,5]naphthyridin-4-yl)-4,5,6,7-tetrahydro-2H-indazol-5-yl]-[3-(2-nitro-phenyl)-allyl]-amine]	32.9 nM	2 µg/mL (≈ 4.38 µM)	2 µg/mL (≈ 4.38 µM)	16 µg/mL (≈ 35 µM)	–	274 nM

SMILES	MIC [1]	MIC [2]	MIC [3]	MIC [8]	MIC [9]	MIC [10]	MIC [11]	IC50 [4]	MIC [5]	MIC [6]	MIC [7]	MIC [12]	IC50 [13]
COc1ccc2nccc(-n3cc4c(n3)CCC(NC(=O)c3cc5c(cc3F)SCC(=O)N5)C4)c2n1 (centres unmarked) [Example 5, 7-Fluoro-3-oxo-3,4-dihydro-2H-benzo[1,4]thiazine-6-carboxylic acid [2-(6-methoxy-[1,5]naphthyridin-4-yl)-4,5,6,7-tetrahydro-2H-indazol-5-yl]-amide]	0.007 µg/mL (≈ 0.0139 µM)	0.25 µg/mL (≈ 0.495 µM)	0.031 µg/mL (≈ 0.0614 µM)	0.031 µg/mL (≈ 0.0614 µM)	0.007 µg/mL (≈ 0.0139 µM)	0.062 µg/mL (≈ 0.123 µM)	0.031 µg/mL (≈ 0.0614 µM)	248 nM	0.25 µg/mL (≈ 0.495 µM)	2 µg/mL (≈ 3.96 µM)	128 µg/mL (≈ 254 µM)	0.015 µg/mL (≈ 0.0297 µM)	238 nM
COc1ccc2nccc(-n3cc4c(n3)CCC(NC(=O)c3cc5c(cc3F)SCC(=O)N5)C4)c2c1 (centres unmarked) [Example 18, 7-Fluoro-3-oxo-3,4-dihydro-2H-benzo[1,4]thiazine-6-carboxylic acid [2-(6-methoxy-quinolin-4-yl)-4,5,6,7-tetrahydro-2H-indazol-5-yl]-amide]	0.015 µg/mL (≈ 0.0298 µM)	0.031 µg/mL (≈ 0.0616 µM)	0.25 µg/mL (≈ 0.496 µM)	0.062 µg/mL (≈ 0.123 µM)	0.031 µg/mL (≈ 0.0616 µM)	0.062 µg/mL (≈ 0.123 µM)	0.062 µg/mL (≈ 0.123 µM)	496 nM	0.03 µg/mL (≈ 0.0596 µM)	1 µg/mL (≈ 1.99 µM)	4 µg/mL (≈ 7.94 µM)	0.031 µg/mL (≈ 0.0616 µM)	–
